Source: paper PMC9127750, “Structure-based design of CDC42 effector interaction inhibitors for the treatment of cancer” (Cell reports, 2022)
“And” between values parts separate entries of the source, which are not always exact repeats. Equal entries are not always repeated.

Tested on: WM3248 melanoma cells, 486 antibodies
Assay: Reverse phase protein arrays (RPPA);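 as to Cyclin.E1.R.V RPPA level: ratio of treated to vehicle (0 µM) normalized linear protein signal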;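 as to DDB.1.R.V RPPA level: ratio of treated to vehicle (0 µM) normalized linear protein signal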
Assay type: cell-based, Human
Conditions: 20 uM
Source text: Pellets were snap frozen in liquid nitrogen and shipped to MD Anderson Cancer Center core RPPA facility for RPPA analysis (Table S5). Three biological replicates for each sample were generated.
Nomenclatures on the RPPA heatmaps: name_of_antibody.species_of_antibody.status_of_antibody. V - antibody validated; C - validation of antibody in progress; Q - antibody nonspecific; E – under evaluation; antibodies raised in M - mouse, G - goat, R - rabbit, or T - rat.

## CN(C)c1cccc(Nc2cc(-c3ccccc3)nc(C3CCNCC3)n2)c1 [ARN22089, N1,N1-dimethyl-N3-(6-phenyl-2-(piperidin-4-yl)pyrimidin-4-yl)benzene-1,3-diamine]
replicates
  Cyclin.D3.M.V RPPA level: 0.858 and 0.793 and 0.870
  Cyclin.E1.R.V RPPA level: 1.034 and 0.978 and 0.864
  Cyclophilin.F.M.V RPPA level: 1.052 and 0.867 and 0.858
  D.a.Tubulin.R.V RPPA level: 0.908 and 1.131 and 1.049
  DAPK1_pS308.M.C RPPA level: 1.387 and 1.152
  DAPK2.R.C RPPA level: 0.896 and 1.008 and 1.104
  DDB.1.R.V RPPA level: 1.000 and 0.862 and 0.981
  DDR1.R.V RPPA level: 1.126 and 0.892 and 0.988
  DDR1_pY513.R.C RPPA level: 1.221 and 1.216 and 0.940
  DJ1.R.V RPPA level: 0.994 and 0.831 and 1.019
  DM.Histone.H3.R.V RPPA level: 4.051 and 0.967
  DM.K9.Histone.H3.M.V RPPA level: 1.226 and 2.170 and 0.946
  DNA.Ligase.IV.R.C RPPA level: 0.890 and 0.918 and 1.135
  DNA_POLG.R.V RPPA level: 1.260 and 0.956 and 0.859
  c.Jun_pS73.R.V RPPA level: 0.959 and 1.053 and 0.897
  c.Kit.R.V RPPA level: 1.404 and 1.046 and 0.973
  c.Met_pY1234_Y1235.R.V RPPA level: 0.958 and 1.104 and 1.130
  c.Myc.R.C RPPA level: 0.956 and 0.888 and 0.971
  cGAS.R.V RPPA level: 1.158 and 0.984
  cdc2_pY15.R.C RPPA level: 0.840 and 1.245 and 1.217
  cdc25C.R.V RPPA level: 0.813 and 0.749 and 1.085
Single replicates
  RPPA MYH11.R.C: 1.235 and 1.080 and 0.987
  RPPA Myosin.IIa.R.C: 0.819 and 0.811 and 1.194
  RPPA Myosin.IIa_pS1943.R.V: 1.011 and 0.857 and 1.050
  RPPA Myt1.R.C: 0.843 and 1.001 and 1.193
  RPPA N.Cadherin.R.V: 1.047 and 1.081 and 0.976
  RPPA N.Ras.M.V: 0.921 and 0.893 and 0.971
  RPPA NAPSIN.A.R.C: 0.982 and 1.016 and 1.141
  RPPA NDRG1_pT346.R.V: 0.868 and 0.915 and 1.192
  RPPA NDUFB4.R.V: 1.100 and 0.998 and 0.982
  RPPA NRF2.R.C: 0.849 and 0.982 and 0.977
  RPPA Notch1.R.V: 1.052 and 1.121 and 0.952
  RPPA Notch1.cleaved.R.V: 0.740 and 0.849 and 1.080
  RPPA Notch3.R.C: 1.026 and 1.150 and 0.931
  RPPA Oct.4.R.C: 0.991 and 1.164 and 1.209
  RPPA P.Cadherin.R.C: 1.264 and 1.125
  RPPA PAI.1.M.V: 1.005 and 1.281 and 0.932
  RPPA PAICS.R.C: 0.803 and 0.811 and 1.058
  RPPA PAK1.R.V: 0.820 and 0.886 and 1.049
  RPPA PAK4.R.V: 1.076 and 0.939
  RPPA PAK_pS474_S602_S560.R.V: 1.380 and 1.298 and 0.931
  RPPA PAK_pT423_T402.R.C: 1.015 and 1.053 and 0.971
  RPPA PAR.R.C: 0.974 and 1.464 and 0.714
  RPPA PARG.R.C: 1.599 and 1.316 and 1.014
  RPPA PARP.R.V: 0.538 and 1.057 and 1.348
  RPPA PAX6.R.V: 1.001 and 1.058 and 0.982
  RPPA PAX8.R.C: 1.024 and 0.925 and 0.962
  RPPA PCNA.M.C: 0.783 and 0.854 and 0.955
  RPPA PD.1.R.V: 1.098 and 1.052 and 0.984
  RPPA PD.L1.R.C: 0.895 and 1.054 and 1.001
  RPPA PDH.M.V: 0.970 and 1.058 and 0.953
  RPPA PDHA1.R.V: 0.972 and 1.004 and 1.113
  RPPA PDHK1.R.C: 0.803 and 0.959 and 1.129
  RPPA PDK1.R.V: 1.000 and 1.250
  RPPA PDK1_pS241.R.V: 0.916 and 0.898 and 1.103
  RPPA PEA.15.R.V: 0.986 and 0.870 and 0.999
  RPPA PEA.15_pS116.R.V: 1.029 and 0.986
  RPPA PERK.R.V: 1.320 and 0.802 and 0.841
  RPPA PGM1.R.V: 0.846 and 0.933
  RPPA PHGDH.R.C: 0.989 and 0.962
  RPPA PHLPP.R.V: 1.674 and 0.930 and 0.767
  RPPA PI3K.p85.R.C: 1.023 and 0.792 and 0.886
  RPPA PI3K.p110.a.R.C: 0.804 and 0.921
  RPPA PI3K.p110.b.M.C: 0.988 and 0.918 and 0.941
  RPPA PKA.a.R.V: 0.974 and 0.780 and 1.028
  RPPA PKC.a.b.II_pT638_T641.R.V: 0.684 and 0.941 and 1.154
  RPPA PKC.b.II_pS660.R.V: 0.997 and 1.114 and 1.126
  RPPA PKCa.R.V: 0.630 and 2.106 and 1.942
  RPPA PKM2.R.C: 0.846 and 0.763
  RPPA PLC.gamma1.R.V: 1.296 and 0.944 and 0.963
  RPPA PLC.gamma1_pS1248.R.V: 0.837 and 0.893 and 0.954
  RPPA PLC.gamma2_pY759.R.V: 1.000 and 1.004 and 0.945
  RPPA PLK1.R.C: 1.107 and 0.592 and 1.060
  RPPA PMS2.R.V: 1.016 and 0.991 and 0.952
  RPPA PR.R.V: 0.957 and 0.966 and 0.945
  RPPA PRAS40.M.C: 1.496 and 1.229 and 0.955
  RPPA PRAS40_pT246.R.V: 1.099 and 1.166
  RPPA PRC1_pT481.R.C: 1.163 and 1.114 and 0.975
  RPPA PREX1.R.V: 0.874 and 0.851 and 1.124
  RPPA PTEN.R.V: 1.018 and 1.109 and 1.120
  RPPA PTPN12.R.V: 1.234 and 1.447
  RPPA PYGB.R.V: 1.097 and 1.103
  RPPA PYGM.M.C: 0.934 and 0.932 and 1.083
  RPPA Patched.R.C: 0.965 and 1.140 and 1.132
  RPPA Paxillin.R.C: 0.641 and 0.823 and 1.018
  RPPA Pdcd4.R.C: 0.925 and 0.993 and 1.052
  RPPA Porin.M.V: 1.104 and 0.957
  RPPA Puma.R.C: 0.983 and 0.942 and 1.107
  RPPA Pyk2_pY402.R.C: 0.954 and 1.153 and 1.099
  RPPA RBM15.R.V: 1.017 and 0.937 and 1.032
  RPPA RIP3.R.C: 0.931 and 0.981
  RPPA RIP.R.C: 0.915 and 1.063
  RPPA RPA32.R.V: 1.148 and 1.033 and 1.052
  RPPA RPA32_pS4_S8.R.C: 2.002 and 1.599 and 0.993
  RPPA RRM1.R.C: 0.824 and 0.941
  RPPA RRM2.R.C: 0.754 and 0.881 and 1.132
  RPPA RSK1.R.V: 0.828 and 0.819
  RPPA RSK.R.C: 1.012 and 0.889 and 1.017
  RPPA Rab11.R.C: 1.004 and 1.130
  RPPA Rab25.R.V: 0.958 and 1.084
  RPPA Rad17_pS645.R.V: 0.998 and 1.234 and 0.987
  RPPA Rad23A.R.C: 0.881 and 0.793 and 1.163
  RPPA Rad50.R.V: 1.028
  RPPA Rad51.R.C: 0.897 and 0.995 and 0.927
  RPPA Raptor.R.V: 0.847 and 1.006 and 1.049
  RPPA Rb.M.Q: 1.078 and 0.962 and 0.891
  RPPA Rb_pS807_S811.R.V: 0.920 and 0.719 and 1.081
  RPPA Rheb.M.C: 1.252 and 1.239
  RPPA Rictor.R.C: 0.967
  RPPA Rictor_pT1135.R.V: 1.012 and 1.102 and 1.115
  RPPA S6.M.V: 1.262 and 0.956 and 0.729
  RPPA S6_pS235_S236.R.V: 0.203 and 0.249 and 0.565
  RPPA S6_pS240_S244.R.V: 0.207 and 0.313 and 0.749
  RPPA SCD.M.V: 1.014 and 0.906 and 0.962
  RPPA SDHA.R.V: 1.002 and 1.200
  RPPA SF2.R.V: 1.008 and 0.980
  RPPA SFRP1.R.V: 1.055 and 0.981 and 0.922
  RPPA SGK1.R.V: 0.787 and 0.759 and 0.980
  RPPA SGK3.R.V: 1.047 and 1.079 and 0.942
  RPPA SHP2.R.V: 1.046 and 1.001 and 0.967
  RPPA SHP.2_pY542.R.C: 1.101
  RPPA SIRPαR.V: 1.429 and 0.758 and 0.756
  RPPA SLC1A5.R.C: 1.116 and 0.885 and 1.238
  RPPA SOD1.M.V: 0.930 and 1.026 and 0.944
  RPPA SOD2.R.V: 1.210 and 1.153 and 0.970
  RPPA SOX7.R.V: 1.129 and 1.097 and 1.010
  RPPA STING.R.V: 1.022 and 0.890 and 0.979
  RPPA Shc_pY317.R.C: 0.878 and 1.001 and 1.156
  RPPA Slfn11.G.C: 1.081 and 0.905 and 0.999
  RPPA Smac.M.Q: 1.032 and 0.944 and 0.954
  RPPA Smad1.R.V: 0.952 and 1.150 and 1.141
  RPPA Smad3.R.V: 1.122 and 1.116
  RPPA Smad4.R.V: 1.439 and 1.061 and 0.837
  RPPA Snail.M.Q: 0.766 and 0.784 and 0.712
  RPPA Sox2.R.V: 1.214 and 1.389
  RPPA Sox17.R.V: 0.937 and 0.923
  RPPA Src.M.V: 0.956 and 1.011 and 0.918
  RPPA Src_pY416.R.V: 0.994 and 1.111 and 0.997
  RPPA Src_pY527.R.V: 1.022 and 1.387 and 1.151
  RPPA Stat1_pY701.R.V: 1.097 and 1.029 and 0.986
  RPPA Stat3.R.C: 0.851 and 0.986 and 1.101
  RPPA Stat3_pY705.R.C: 1.728 and 1.194 and 0.922
  RPPA Stat5a.R.V: 0.903 and 1.373 and 1.278
  RPPA Stathmin.1.R.V: 0.916 and 0.858 and 0.997
  RPPA Syk.M.V: 0.934 and 1.057 and 0.933
  RPPA Synaptophysin.R.C: 1.153 and 0.998 and 0.965
  RPPA TAZ.R.V: 0.631 and 0.534 and 0.991
  RPPA TEAD.R.C: 0.716 and 1.191
  RPPA TFAM.R.V: 0.999 and 0.944 and 0.992
  RPPA TFRC.R.V: 0.895 and 0.844 and 1.062
  RPPA TIGAR.R.V: 1.012 and 1.022 and 1.077
  RPPA TRAP1.M.V: 0.979 and 0.864 and 0.990
  RPPA TRIM24.R.C: 1.117 and 0.958
  RPPA TRIM25.R.C: 0.754 and 0.868 and 1.058
  RPPA TRIP13.R.V: 1.019 and 0.950 and 0.966
  RPPA Tau.M.C: 1.147 and 1.195 and 0.925
  RPPA Transglutaminase.M.V: 0.881 and 1.342 and 1.747
  RPPA level HLA.DQA1.R.V: 1.062 and 1.076 and 0.920
  RPPA level HLA.DR.DP.DQ.DX.R.C: 1.376 and 1.011 and 0.963
  RPPA level HMHA1.R.V: 1.204
  RPPA level HNRNPK.R.V: 1.033 and 1.100
  RPPA level HSP27.M.C: 0.818 and 0.879 and 0.896
  RPPA level HSP27_pS82.R.V: 0.857 and 1.102 and 1.157
